Read-outs that look alike come from different tables or passages of the source.
Columns and labels:
Experiment in all cases: Test C pre/postemergence
Assay type in all cases: in vivo
[1] = test system: common (oilseed) sunflower (Helianthus annuus); conditions: Helianthus annuus, pre-emergence, Preemergence, read-out: Plant response rating, Sunflower
Outline: (§1)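 Rating scale 0–100: 0 means no effect, 100 complete control; taken visually 12 to 14 days post-treatment versus controls. Pre- and postemergence greenhouse applications, postemergence at 1- to 4-leaf stage, non-phytotoxic solvent with surfactant as carrier.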

[2] = test system: cocklebur (Xanthium strumarium); conditions: Xanthium strumarium; for pest or weed control at 31 g/ha: 31 g ai/ha; for pest or weed control at 62 g/ha: 62 g ai/ha; for pest or weed control at 125 g/ha: 125 g ai/ha; for pest or weed control at 250 g/ha: 250 g ai/ha
Outline: as §1

[3] = test system: yellow nutsedge (Cyperus esculentus); conditions: Cyperus; for pest or weed control at 31 g/ha: 31 g ai/ha; for pest or weed control at 62 g/ha: 62 g ai/ha; for pest or weed control at 125 g/ha: 125 g ai/ha; for pest or weed control at 250 g/ha: 250 g ai/ha
Outline: as §1

[4] = test system: common ragweed (Ambrosia elatior); conditions: Ambrosia artemisiifolia; for pest or weed control at 31 g/ha: 31 g ai/ha; for pest or weed control at 62 g/ha: 62 g ai/ha; for pest or weed control at 125 g/ha: 125 g ai/ha; for pest or weed control at 250 g/ha: 250 g ai/ha
Outline: as §1

[5] = test system: pigweed (Amaranthus retroflexus); conditions: Amaranthus retroflexus; for pest or weed control at 31 g/ha: 31 g ai/ha; for pest or weed control at 62 g/ha: 62 g ai/ha; for pest or weed control at 125 g/ha: 125 g ai/ha; for pest or weed control at 250 g/ha: 250 g ai/ha
Outline: as §1

[6] = test system: goosegrass (Eleusine indica); conditions: Eleusine indica; for pest or weed control at 31 g/ha: 31 g ai/ha; for pest or weed control at 62 g/ha: 62 g ai/ha; for pest or weed control at 125 g/ha: 125 g ai/ha; for pest or weed control at 250 g/ha: 250 g ai/ha
Outline: as §1

[7] = test system: crabgrass (Digitaria sanguinalis); conditions: Digitaria sanguinalis, post-emergence, Postemergence
Outline: as §1

[8] = post-emergence, Postemergence, scale 0 to 100 (0 no effect, 100 complete control), read-out: Cocklebur plant response rating
[9] = pre-emergence, Preemergence, scale 0 to 100, 0 no effect, 100 complete control, read-out: Plant response rating, Cocklebur
[10] = pre-emergence, Preemergence, scale 0 to 100, read-out: Plant response rating, Cocklebur
[11] = post-emergence, Postemergence, scale 0 to 100 (0 no effect, 100 complete control), read-out: Nutsedge, Yellow plant response rating
[12] = pre-emergence, Preemergence, scale 0 to 100, 0 no effect, 100 complete control, read-out: Plant response rating, Nutsedge, Yellow
[13] = pre-emergence, Preemergence, scale 0 to 100, read-out: Plant response rating, Nutsedge, Yellow
[14] = post-emergence, Postemergence, scale 0 to 100 (0 no effect, 100 complete control), read-out: Ragweed plant response rating
[15] = pre-emergence, Preemergence, scale 0 to 100, 0 no effect, 100 complete control, read-out: Plant response rating, Ragweed
[16] = pre-emergence, Preemergence, scale 0 to 100, read-out: Plant response rating, Ragweed
[17] = post-emergence, Postemergence, scale 0 to 100 (0 no effect, 100 complete control), read-out: Pigweed plant response rating
[18] = pre-emergence, Preemergence, scale 0 to 100, 0 no effect, 100 complete control, read-out: Plant response rating, Pigweed
[19] = pre-emergence, Preemergence, scale 0 to 100, read-out: Plant response rating, Pigweed
[20] = post-emergence, Postemergence, scale 0 to 100 (0 no effect, 100 complete control), read-out: Goosegrass plant response rating
[21] = pre-emergence, Preemergence, scale 0 to 100, 0 no effect, 100 complete control, read-out: Plant response rating, Goosegrass
[22] = pre-emergence, Preemergence, scale 0 to 100, read-out: Plant response rating, Goosegrass

COC(=O)c1nc(C2CC2)nc(N)c1Cl [Compound 9, methyl 6-amino-5-chloro-2-cyclopropyl-4-pyrimidinecarboxylate]
20%: pest or weed control at 31 g/ha [3, 12] | pest or weed control at 125 g/ha [6, 22]
70%: pest or weed control at 31 g/ha ([4]; post-emergence, Postemergence, read-out: Plant response rating (scale of 0 to 100), Ragweed) | pest or weed control at 62 g/ha [5, 17] | pest or weed control at 62 g/ha ([7]; 62 g ai/ha, scale 0 to 100 (0 no effect, 100 complete control), read-out: Crabgrass plant response rating)
40%: pest or weed control at 31 g/ha ([2]; post-emergence, Postemergence, read-out: Plant response rating (scale of 0 to 100), Cocklebur) | pest or weed control at 125 g/ha [6, 20]
80%: pest or weed control at 62 g/ha [2, 9] | pest or weed control at 62 g/ha [4, 14]
45%: pest or weed control at 250 g/ha ([6]; post-emergence, Postemergence, scale 0 to 100, read-out: Plant response rating, Goosegrass)
85%: pest or weed control at 62 g/ha [2, 8]
55%: pest or weed control at 31 g/ha ([5]; post-emergence, Postemergence, read-out: Plant response rating (scale of 0 to 100), Pigweed)
75%: pest or weed control at 31 g/ha [2, 9]
50%: pest or weed control at 250 g/ha [6, 22]
60%: pest or weed control at 31 g/ha ([7]; 31 g ai/ha, read-out: Plant response rating (scale of 0 to 100), Crabgrass)
0%: pest or weed control at 31 g/ha ([3]; post-emergence, Postemergence, read-out: Plant response rating (scale of 0 to 100), Nutsedge, Yellow) | pest or weed control at 62 g/ha [3, 11] | pest or weed control at 125 g/ha [3, 11] | pest or weed control at 250 g/ha ([3]; post-emergence, Postemergence, scale 0 to 100, read-out: Plant response rating, Nutsedge, Yellow) | pest or weed control at 31 g/ha ([6]; post-emergence, Postemergence, read-out: Plant response rating (scale of 0 to 100), Goosegrass) | pest or weed control at 62 g/ha [6, 20] | pest or weed control at 31 g/ha [6, 21] | pest or weed control at 62 g/ha [6, 21]
95%: pest or weed control at 125 g/ha [4, 14] | pest or weed control at 31 g/ha [5, 18] | pest or weed control at 62 g/ha [5, 18]
100%: pest or weed control at 31 g/ha ([1]; 31 g ai/ha, scale 0 to 100, 0 no effect, 100 complete control) | pest or weed control at 62 g/ha ([1]; 62 g ai/ha, scale 0 to 100, 0 no effect, 100 complete control) | pest or weed control at 125 g/ha ([1]; 125 g ai/ha, scale 0 to 100) | pest or weed control at 250 g/ha ([1]; 250 g ai/ha, scale 0 to 100) | pest or weed control at 125 g/ha [2, 8] | pest or weed control at 250 g/ha ([2]; post-emergence, Postemergence, scale 0 to 100, read-out: Plant response rating, Cocklebur) | pest or weed control at 125 g/ha [2, 10] | pest or weed control at 250 g/ha [2, 10] | pest or weed control at 62 g/ha [3, 12] | pest or weed control at 125 g/ha [3, 13] | pest or weed control at 250 g/ha [3, 13] | pest or weed control at 250 g/ha ([4]; post-emergence, Postemergence, scale 0 to 100, read-out: Plant response rating, Ragweed) | pest or weed control at 31 g/ha [4, 15] | pest or weed control at 62 g/ha [4, 15] | pest or weed control at 125 g/ha [4, 16] | pest or weed control at 250 g/ha [4, 16] | pest or weed control at 125 g/ha [5, 17] | pest or weed control at 250 g/ha ([5]; post-emergence, Postemergence, scale 0 to 100, read-out: Plant response rating, Pigweed) | pest or weed control at 125 g/ha [5, 19] | pest or weed control at 250 g/ha [5, 19]
